{"source": "patent USRE37781E1", "about": "“Substituted cyclic carbonyls and derivatives thereof useful as retroviral protease inhibitors” (DuPont Pharmaceuticals Company, priority 1991, dated 2002)", "key": {"HIV-1 (RF) in MT-2 cells": {"system": "HIV-1 (RF) in MT-2 cells", "experiment": "microbe, parasite or virus in culture", "assay_type": "cell-based", "method_in_brief": "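HIV-1 laboratory strains (RF, MN, IIIB) grown in H9 cells in RPMI 1640 with 5% FCS; infections in MT-2 cells. Viral RNA quantified by hybridization with biotinylated gag/pol capture probes on streptavidin plates and alkaline phosphatase-conjugated reporter probes; BH10 gag-pol in vitro transcripts serve as RNA standards.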"}, "[1]": {"biological_target": "single-chain tethered dimer of HIV protease (Human immunodeficiency virus 1, UniProt P04585)", "experiment": "biochemical", "assay_type": "biochemical", "set-up": "fused on or other part: A second copy of the same protease unit is joined to the first by a short peptide tether, giving one polypeptide"}, "[2]": {"settings": "Human immunodeficiency virus 1, MT2, 48 h, Table 2d, class symbols, read-out: IC90"}, "[3]": {"settings": "read-out: HPLC K1, Table 2d, class symbols"}, "[4]": {"settings": "Human immunodeficiency virus 1, MT2, 48 h, Table 2d, HIV RNA assay, read-out: IC90"}, "[5]": {"settings": "read-out: HPLC K1, Table 2d, HIV protease inhibition, HPLC method"}, "[6]": {"settings": "Table 2d, HIV protease inhibition, HPLC method, read-out: HPLC K1"}, "[7]": {"settings": "Table 2d, class symbols, read-out: HPLC K1"}}, "note": "Read-outs that look alike come from different tables or passages of the source."}
{"smiles": "O=C1N(CCCCC(O)CO)C(Cc2ccccc2)C(O)C(O)C(Cc2ccccc2)N1CCCCC(O)CO", "note": "(centres unmarked) [Example 13I]", "values": [{"measurement": "IC90", "setting": "HIV-1 (RF) in MT-2 cells; [2]", "result": "> 100", "unit": "µg/mL"}, {"measurement": "Ki", "setting": "[1]; [3]", "result": "< 10", "unit": "nM"}]}
{"smiles": "COc1cccc(CN2C(=S)N(Cc3cccc(OC)c3)C(Cc3ccccc3)C(O)C(O)C2Cc2ccccc2)c1", "note": "(centres unmarked) [Example 27G]", "values": [{"measurement": "IC90", "setting": "HIV-1 (RF) in MT-2 cells; Table 2q", "result": "+++ (+++=<10 μg/mL)"}, {"measurement": "Ki", "setting": "[1]; Table 2q, read-out: HPLC Ki", "result": "< 10", "unit": "nM"}]}
{"smiles": "O=C(c1cccc(CN2C(=O)N(Cc3cccc(C(=O)c4cc[nH]n4)c3)C(Cc3ccccc3)C(O)C(O)C2Cc2ccccc2)c1)c1cc[nH]n1", "note": "(centres unmarked) [Example 15YN]", "values": [{"measurement": "IC90", "setting": "HIV-1 (RF) in MT-2 cells; [4]", "result": "< 10", "unit": "µg/mL"}, {"measurement": "Ki", "setting": "[1]; [5]", "result": "< 10", "unit": "nM"}]}
{"smiles": "Nc1noc2ccc(CN3C(=O)N(Cc4ccc5onc(N)c5c4)C(Cc4ccccc4)C(O)C(O)C3Cc3ccccc3)cc12", "note": "(centres unmarked) [15DG]", "values": [{"measurement": "IC90", "setting": "HIV-1 (RF) in MT-2 cells; Table 2d, HIV RNA assay", "result": "+++ (+++=<10 μg/mL)"}, {"measurement": "Ki", "setting": "[1]; [6]", "result": "< 10", "unit": "nM"}]}
{"smiles": "OCc1cccc(CN2C(=S)N(Cc3cccc(CO)c3)C(Cc3ccccc3)C(O)C(O)C2Cc2ccccc2)c1", "note": "(centres unmarked) [Example 27D]", "values": [{"measurement": "IC90", "setting": "HIV-1 (RF) in MT-2 cells; Table 2q", "result": "+++ (+++=<10 μg/mL)"}, {"measurement": "Ki", "setting": "[1]; Table 2q, read-out: HPLC Ki", "result": "< 10", "unit": "nM"}]}
{"smiles": "NC(=NO)c1cccc(CN2C(=S)N(Cc3cccc(C(N)=NO)c3)[C@H](Cc3ccccc3)[C@H](O)[C@@H](O)[C@H]2Cc2ccccc2)c1", "note": "[Example 27L]", "values": [{"measurement": "IC90", "setting": "HIV-1 (RF) in MT-2 cells; Table 2q", "result": "+++ (+++=<10 μg/mL)"}, {"measurement": "Ki", "setting": "[1]; Table 2q, read-out: HPLC Ki", "result": "< 10", "unit": "nM"}]}
{"smiles": "O=C1N(Cc2ccccc2)C(Cc2ccccc2)C(O)C(O)C(Cc2ccccc2)N1Cc1ccccc1", "note": "(centres unmarked) [Example 13L]", "values": [{"measurement": "IC90", "setting": "HIV-1 (RF) in MT-2 cells; [2]", "result": "< 10", "unit": "µg/mL"}, {"measurement": "Ki", "setting": "[1]; [3]", "result": "< 10", "unit": "nM"}]}
{"smiles": "O=C1N(Cc2ccc(CO)cc2)C(Cc2ccccc2)C(O)C(O)C(Cc2ccccc2)N1Cc1ccc(CO)cc1", "note": "(centres unmarked) [Example 13S]", "values": [{"measurement": "IC90", "setting": "HIV-1 (RF) in MT-2 cells; Table 2d, class symbols", "result": "++ (++=10 to 100 μg/mL)"}, {"measurement": "Ki", "setting": "[1]; [3]", "result": "10 to 1000", "unit": "nM"}]}
{"smiles": "CCNCc1ccc(C(=O)OCc2ccc(CN3C(=O)N(Cc4ccc(COC(=O)c5ccc(CNCC)cc5)cc4)[C@H](Cc4ccccc4)[C@H](O)[C@@H](O)[C@H]3Cc3ccccc3)cc2)cc1.Cl", "note": "[29V]", "values": [{"measurement": "IC90", "setting": "HIV-1 (RF) in MT-2 cells; Table 2s", "result": "+++ (+++=<10 μg/mL)"}, {"measurement": "Ki", "setting": "[1]; Table 2s, read-out: Ki (HPLC)", "result": "> 1000", "unit": "nM"}]}
{"smiles": "C=CCN1C(=O)N(CC=C)C(Cc2ccccc2)C(O)C(O)C1Cc1ccccc1", "note": "(centres unmarked) [Example 13K]", "values": [{"measurement": "IC90", "setting": "HIV-1 (RF) in MT-2 cells; Table 2d, class symbols", "result": "+++ (+++=<10 μg/mL)"}, {"measurement": "Ki", "setting": "[1]; [7]", "result": "< 10", "unit": "nM"}]}
{"smiles": "O=C1N(Cc2ccc(O)cc2)C(Cc2ccccc2)C(O)C(O)C(Cc2ccccc2)N1Cc1cccc(-c2cc[nH]n2)c1", "note": "(centres unmarked) [15CA]", "values": [{"measurement": "IC90", "setting": "HIV-1 (RF) in MT-2 cells; [4]", "result": "< 10", "unit": "µg/mL"}, {"measurement": "Ki", "setting": "[1]; [5]", "result": "< 10", "unit": "nM"}]}
{"smiles": "COC(=O)c1cccc(CN2C(=O)N(Cc3cccc(C(=O)OC)c3)C(Cc3ccc(F)c(F)c3)C(O)C(O)C2Cc2ccc(F)c(F)c2)c1", "note": "(centres unmarked) [20Y]", "values": [{"measurement": "IC90", "setting": "HIV-1 (RF) in MT-2 cells; Table 2i", "result": "+++ (+++=<10 μg/mL)"}, {"measurement": "Ki", "setting": "[1]; Table 2i, read-out: HPLC Ki", "result": "< 10", "unit": "nM"}]}
{"smiles": "COc1cccc(CC2C(O)C(O)C(Cc3cccc(OC)c3)N(Cc3cccc(OC)c3)C(=O)N2Cc2cccc(OC)c2)c1", "note": "(centres unmarked) [20AU]", "values": [{"measurement": "IC90", "setting": "HIV-1 (RF) in MT-2 cells; Table 2i", "result": "+++ (+++=<10 μg/mL)"}, {"measurement": "Ki", "setting": "[1]; Table 2i, read-out: HPLC Ki", "result": "< 10", "unit": "nM"}]}
{"smiles": "O=C1N(Cc2ccc(F)c(CO)c2)C(Cc2ccccc2)C(O)C(O)C(Cc2ccccc2)N1Cc1ccc(F)c(CO)c1", "note": "(centres unmarked) [15EG]", "values": [{"measurement": "IC90", "setting": "HIV-1 (RF) in MT-2 cells; Table 2d, HIV RNA assay", "result": "+++ (+++=<10 μg/mL)"}, {"measurement": "Ki", "setting": "[1]; [6]", "result": "< 10", "unit": "nM"}]}
{"smiles": "O=C1N(Cc2cccc(O)c2)C(Cc2ccccc2)C(O)C(O)C(Cc2ccccc2)N1Cc1ccccn1", "note": "(centres unmarked) [10Q]", "values": [{"measurement": "IC90", "setting": "HIV-1 (RF) in MT-2 cells; [2]", "result": "< 10", "unit": "µg/mL"}, {"measurement": "Ki", "setting": "[1]; [3]", "result": "10 to 1000", "unit": "nM"}]}
{"smiles": "NCc1ccc(CN2C(=O)N(Cc3ccc(CO)cc3)C(Cc3ccccc3)C(O)C(O)C2Cc2ccccc2)cc1", "note": "(centres unmarked) [Example 15YH]", "values": [{"measurement": "IC90", "setting": "HIV-1 (RF) in MT-2 cells; Table 2d, HIV RNA assay", "result": "++ (++=10 to 100 μg/mL)"}, {"measurement": "Ki", "setting": "[1]; [6]", "result": "10 to 1000", "unit": "nM"}]}
{"smiles": "O=S1(=O)N(CCCCCO)C(Cc2ccccc2)C(O)C(O)C(Cc2ccccc2)N1Cc1ccc(CO)cc1", "note": "(centres unmarked) [23AG]", "values": [{"measurement": "IC90", "setting": "HIV-1 (RF) in MT-2 cells; Table 2m", "result": "+++ (+++=<10 μg/mL)"}, {"measurement": "Ki", "setting": "[1]; Table 2m, read-out: HPLC Ki", "result": "< 10", "unit": "nM"}]}
{"smiles": "CC(C)(C)OC(=O)c1ccc(CN2C(=O)N(Cc3ccc(C(=O)OC(C)(C)C)o3)C(Cc3ccccc3)C(O)C(O)C2Cc2ccccc2)o1", "note": "(centres unmarked) [Example 13W]", "values": [{"measurement": "IC90", "setting": "HIV-1 (RF) in MT-2 cells; Table 2d, class symbols", "result": "+++ (+++=<10 μg/mL)"}, {"measurement": "Ki", "setting": "[1]; [7]", "result": "> 1000", "unit": "nM"}]}
{"smiles": "O=C1N(Cc2ccc3ccccc3c2)C(Cc2ccccc2)C(O)C(O)C(Cc2ccccc2)N1Cc1ccc2[nH]nnc2c1", "note": "(centres unmarked) [15DO]", "values": [{"measurement": "IC90", "setting": "HIV-1 (RF) in MT-2 cells; Table 2d, HIV RNA assay", "result": "+++ (+++=<10 μg/mL)"}, {"measurement": "Ki", "setting": "[1]; [6]", "result": "< 10", "unit": "nM"}]}
{"smiles": "CN(C)CC(=O)Nc1cccc(CN2C(=O)N(Cc3cccc(NC(=O)CN(C)C)c3)C(Cc3ccccc3)C(O)C(O)C2Cc2ccccc2)c1.Cl.Cl", "note": "(centres unmarked) [15N]", "values": [{"measurement": "IC90", "setting": "HIV-1 (RF) in MT-2 cells; Table 2d, class symbols", "result": "+++ (+++=<10 μg/mL)"}, {"measurement": "Ki", "setting": "[1]; [7]", "result": "< 10", "unit": "nM"}]}
{"smiles": "O=S1(=O)N(Cc2ccccc2)C(Cc2ccccc2)C(O)C(O)C(Cc2ccccc2)N1Cc1ccccc1", "note": "(centres unmarked) [23I]", "values": [{"measurement": "IC90", "setting": "HIV-1 (RF) in MT-2 cells; Table 2m", "result": "+++ (+++=<10 μg/mL)"}, {"measurement": "Ki", "setting": "[1]; Table 2m, read-out: HPLC Ki", "result": "10 to 1000", "unit": "nM"}]}
{"smiles": "O=S1(=O)N(CCCCCO)C(Cc2ccccc2)C(O)C(O)C(Cc2ccccc2)N1Cc1cccc(CO)c1", "note": "(centres unmarked) [23AH]", "values": [{"measurement": "IC90", "setting": "HIV-1 (RF) in MT-2 cells; Table 2m", "result": "+++ (+++=<10 μg/mL)"}, {"measurement": "Ki", "setting": "[1]; Table 2m, read-out: HPLC Ki", "result": "< 10", "unit": "nM"}]}
{"smiles": "O=C1N(Cc2ccc(CO)cc2)C(Cc2ccccc2)C(O)C(O)C(Cc2ccccc2)N1Cc1ccccc1O", "note": "(centres unmarked) [15EA]", "values": [{"measurement": "IC90", "setting": "HIV-1 (RF) in MT-2 cells; [4]", "result": "< 10", "unit": "µg/mL"}, {"measurement": "Ki", "setting": "[1]; [5]", "result": "< 10", "unit": "nM"}]}
{"smiles": "Oc1ccc(CN2C(=S)N(Cc3ccc(O)cc3)C(Cc3ccccc3)C(O)C(O)C2Cc2ccccc2)cc1", "note": "(centres unmarked) [Example 27F]", "values": [{"measurement": "IC90", "setting": "HIV-1 (RF) in MT-2 cells; Table 2q", "result": "+++ (+++=<10 μg/mL)"}, {"measurement": "Ki", "setting": "[1]; Table 2q, read-out: HPLC Ki", "result": "< 10", "unit": "nM"}]}
{"smiles": "CCCNC(=O)c1cccc(CN2C(=O)N(Cc3cccc(C(=O)NCCC)c3)C(Cc3ccccc3)C(O)C(O)C2Cc2ccccc2)c1", "note": "(centres unmarked) [15WM]", "values": [{"measurement": "IC90", "setting": "HIV-1 (RF) in MT-2 cells; [2]", "result": "< 10", "unit": "µg/mL"}, {"measurement": "Ki", "setting": "[1]; [3]", "result": "< 10", "unit": "nM"}]}
